Laboratory results: the kinase profiling compilation of Christmann-Franck et al. (2016)

What was measured:
Experiment in all cases: KINOMEscan competition binding
BMX (human) = BMX (human) (UniProt P51813)
CAMKK2 (human) = CAMKK2 (human) (UniProt Q96RR4)
CDK17 (human) = CDK17 (human) (UniProt Q00537)
CDK19 (human) = CDK19 (human) (UniProt Q9BWU1)
CDK3 (human) = CDK3 (human) (UniProt Q00526)
CDK5 (human) = CDK5 (human) (UniProt Q00535)
CDKL1 (human) = CDKL1 (human) (UniProt Q00532)
CLK3 (human) = CLK3 (human) (UniProt P49761)
CRK2 (P.falciparum) = CRK2 (P.falciparum) (UniProt P61075)
DYRK2 (human) = DYRK2 (human) (UniProt Q92630)
EGFR (human) = EGFR (human) (UniProt P00533)
[1] = test system: EGFR (human), P00533 [G719S]
[2] = test system: EGFR (human), P00533 [L858R]
[3] = test system: FLT3 (human), P36888 [D835Y]
FYN (human) = FYN (human) (UniProt P06241)
GAK (human) = GAK (human) (UniProt O14976)
IGF1R (human) = IGF1R (human) (UniProt P08069)
INSR (human) = INSR (human) (UniProt P06213)
[4] = target: JAK3 JH1 catalytic (human) (UniProt P52333)
[5] = test system: LRRK2 (human), Q5S007 [G2019S]
LYN (human) = LYN (human) (UniProt P07948)
MAP2K6 (human) = MAP2K6 (human) (UniProt P52564)
MAP3K4 (human) = MAP3K4 (human) (UniProt Q9Y6R4)
MAPK14 (human) = MAPK14 (human) (UniProt Q16539)
MATK (human) = MATK (human) (UniProt P42679)
MKNK2 (human) = MKNK2 (human) (UniProt Q9HBH9)
MYLK3 (human) = MYLK3 (human) (UniProt Q32MK0)
MYO3B (human) = MYO3B (human) (UniProt Q8WXR4)
NEK11 (human) = NEK11 (human) (UniProt Q8NG66)
NEK5 (human) = NEK5 (human) (UniProt Q6P3R8)
NUAK2 (human) = NUAK2 (human) (UniProt Q9H093)
[6] = test system: PIK3CA (human), P42336 [E545A]
PKN1 (human) = PKN1 (human) (UniProt Q16512)
PRKCH (human) = PRKCH (human) (UniProt P24723)
RPS6KA1 KD2 (human) = RPS6KA1 KD2 (human) (UniProt Q15418)
SRPK1 (human) = SRPK1 (human) (UniProt Q96SB4)
STK16 (human) = STK16 (human) (UniProt O75716)
STK3 (human) = STK3 (human) (UniProt Q13188)
TAOK2 (human) = TAOK2 (human) (UniProt Q9UL54)
TAOK3 (human) = TAOK3 (human) (UniProt Q9H2K8)
TBK1 (human) = TBK1 (human) (UniProt Q9UHD2)
TLK1 (human) = TLK1 (human) (UniProt Q9UKI8)
WEE1 (human) = WEE1 (human) (UniProt P30291)

Chain of NUAK2 (human) (Q9H093 whole entry, looked up): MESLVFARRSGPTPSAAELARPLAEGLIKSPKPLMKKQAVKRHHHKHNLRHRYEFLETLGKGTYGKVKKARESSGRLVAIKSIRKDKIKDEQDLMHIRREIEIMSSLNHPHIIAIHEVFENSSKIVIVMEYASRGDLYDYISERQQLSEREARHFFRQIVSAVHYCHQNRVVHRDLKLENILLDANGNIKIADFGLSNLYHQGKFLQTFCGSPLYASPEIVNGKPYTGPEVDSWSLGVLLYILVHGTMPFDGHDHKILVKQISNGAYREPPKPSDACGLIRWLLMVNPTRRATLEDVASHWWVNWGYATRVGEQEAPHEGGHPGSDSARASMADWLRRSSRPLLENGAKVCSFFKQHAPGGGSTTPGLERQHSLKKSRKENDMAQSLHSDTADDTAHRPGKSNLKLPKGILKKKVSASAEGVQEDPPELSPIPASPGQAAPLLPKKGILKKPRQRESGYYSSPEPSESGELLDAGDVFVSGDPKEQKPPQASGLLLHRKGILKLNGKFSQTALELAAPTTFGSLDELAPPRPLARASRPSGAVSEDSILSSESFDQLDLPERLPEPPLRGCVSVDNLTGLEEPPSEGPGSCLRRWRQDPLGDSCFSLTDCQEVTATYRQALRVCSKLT
Chain of CDK5 (human) (Q00535 whole entry, looked up): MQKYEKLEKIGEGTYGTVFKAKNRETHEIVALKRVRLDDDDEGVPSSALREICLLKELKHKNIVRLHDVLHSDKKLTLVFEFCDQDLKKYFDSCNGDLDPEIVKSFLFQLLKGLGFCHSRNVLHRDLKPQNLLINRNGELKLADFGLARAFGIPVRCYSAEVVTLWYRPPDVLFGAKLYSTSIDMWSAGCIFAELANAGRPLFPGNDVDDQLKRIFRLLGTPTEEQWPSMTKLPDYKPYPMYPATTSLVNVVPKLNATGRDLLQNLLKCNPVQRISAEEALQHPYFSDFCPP
Chain of TAOK2 (human) (Q9UL54 whole entry, looked up): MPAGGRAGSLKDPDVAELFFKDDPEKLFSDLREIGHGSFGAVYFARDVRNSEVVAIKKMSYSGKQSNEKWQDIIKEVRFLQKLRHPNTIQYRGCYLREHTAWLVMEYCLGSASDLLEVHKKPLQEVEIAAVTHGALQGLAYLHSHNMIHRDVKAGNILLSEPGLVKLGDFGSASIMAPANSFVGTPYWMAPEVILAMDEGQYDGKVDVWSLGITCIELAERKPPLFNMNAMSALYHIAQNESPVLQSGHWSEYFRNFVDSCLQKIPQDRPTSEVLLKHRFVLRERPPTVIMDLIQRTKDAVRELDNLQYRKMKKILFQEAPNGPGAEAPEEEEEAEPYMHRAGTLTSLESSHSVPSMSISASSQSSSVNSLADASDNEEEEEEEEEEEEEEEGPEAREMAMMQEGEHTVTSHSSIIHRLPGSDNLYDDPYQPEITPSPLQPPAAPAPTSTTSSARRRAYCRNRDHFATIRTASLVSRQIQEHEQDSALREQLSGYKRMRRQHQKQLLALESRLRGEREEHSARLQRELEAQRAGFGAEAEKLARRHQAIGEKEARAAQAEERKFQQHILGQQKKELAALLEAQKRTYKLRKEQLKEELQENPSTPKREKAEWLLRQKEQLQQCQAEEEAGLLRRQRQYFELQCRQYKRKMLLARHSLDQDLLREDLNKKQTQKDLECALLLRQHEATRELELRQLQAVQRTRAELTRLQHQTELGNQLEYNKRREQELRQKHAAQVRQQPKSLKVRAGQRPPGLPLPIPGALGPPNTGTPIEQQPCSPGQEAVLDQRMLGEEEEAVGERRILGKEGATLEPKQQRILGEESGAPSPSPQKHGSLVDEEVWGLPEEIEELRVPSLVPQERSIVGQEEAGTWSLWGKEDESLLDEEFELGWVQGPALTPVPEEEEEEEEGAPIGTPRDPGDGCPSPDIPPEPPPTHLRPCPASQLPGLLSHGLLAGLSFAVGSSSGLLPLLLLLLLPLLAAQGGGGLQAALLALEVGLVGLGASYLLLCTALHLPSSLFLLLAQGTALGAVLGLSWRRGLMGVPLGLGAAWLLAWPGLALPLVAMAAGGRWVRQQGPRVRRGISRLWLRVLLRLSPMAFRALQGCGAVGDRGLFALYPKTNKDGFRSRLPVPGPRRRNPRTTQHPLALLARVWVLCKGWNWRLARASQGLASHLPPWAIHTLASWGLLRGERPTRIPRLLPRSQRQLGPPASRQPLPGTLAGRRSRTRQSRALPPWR
Chain of TLK1 (human) (Q9UKI8 whole entry, looked up): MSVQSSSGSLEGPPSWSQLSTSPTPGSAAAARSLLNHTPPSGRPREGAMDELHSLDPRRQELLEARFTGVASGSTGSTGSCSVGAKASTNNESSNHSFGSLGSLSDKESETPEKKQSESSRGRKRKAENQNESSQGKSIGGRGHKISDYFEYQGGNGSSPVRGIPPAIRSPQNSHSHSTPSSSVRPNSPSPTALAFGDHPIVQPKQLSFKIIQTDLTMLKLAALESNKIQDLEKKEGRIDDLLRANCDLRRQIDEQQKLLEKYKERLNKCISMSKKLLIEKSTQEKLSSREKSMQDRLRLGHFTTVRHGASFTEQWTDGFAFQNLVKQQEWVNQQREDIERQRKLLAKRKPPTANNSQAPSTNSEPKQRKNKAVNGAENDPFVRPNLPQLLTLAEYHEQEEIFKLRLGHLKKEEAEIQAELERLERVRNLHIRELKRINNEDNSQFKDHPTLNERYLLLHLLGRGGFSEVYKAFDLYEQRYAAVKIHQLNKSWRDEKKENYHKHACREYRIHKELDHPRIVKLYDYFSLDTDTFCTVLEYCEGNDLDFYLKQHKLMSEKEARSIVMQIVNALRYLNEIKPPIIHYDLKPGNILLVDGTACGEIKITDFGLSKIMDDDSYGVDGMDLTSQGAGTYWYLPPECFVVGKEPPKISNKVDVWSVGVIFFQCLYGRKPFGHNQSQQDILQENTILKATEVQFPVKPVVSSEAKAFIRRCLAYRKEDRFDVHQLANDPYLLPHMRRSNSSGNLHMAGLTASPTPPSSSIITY
Chain of NEK11 (human) (Q8NG66 whole entry, looked up): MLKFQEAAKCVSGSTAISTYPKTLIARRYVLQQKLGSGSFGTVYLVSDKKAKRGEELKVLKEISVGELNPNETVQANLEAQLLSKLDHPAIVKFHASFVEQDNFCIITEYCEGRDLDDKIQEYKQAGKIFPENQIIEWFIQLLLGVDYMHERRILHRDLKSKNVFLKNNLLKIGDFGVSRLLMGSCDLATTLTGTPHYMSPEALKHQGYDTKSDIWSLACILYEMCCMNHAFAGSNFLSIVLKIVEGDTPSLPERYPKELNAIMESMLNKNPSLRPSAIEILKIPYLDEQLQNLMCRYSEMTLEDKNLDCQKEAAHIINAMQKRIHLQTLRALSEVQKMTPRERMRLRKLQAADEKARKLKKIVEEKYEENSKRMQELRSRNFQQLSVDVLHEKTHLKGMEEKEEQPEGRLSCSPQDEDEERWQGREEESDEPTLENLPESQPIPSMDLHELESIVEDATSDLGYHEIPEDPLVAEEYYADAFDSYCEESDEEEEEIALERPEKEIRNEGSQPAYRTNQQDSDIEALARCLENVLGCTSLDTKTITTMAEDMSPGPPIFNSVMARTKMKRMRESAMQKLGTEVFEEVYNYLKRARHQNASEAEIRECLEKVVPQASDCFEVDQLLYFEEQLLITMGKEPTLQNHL
Chain of CDKL1 (human) (Q00532 whole entry, looked up): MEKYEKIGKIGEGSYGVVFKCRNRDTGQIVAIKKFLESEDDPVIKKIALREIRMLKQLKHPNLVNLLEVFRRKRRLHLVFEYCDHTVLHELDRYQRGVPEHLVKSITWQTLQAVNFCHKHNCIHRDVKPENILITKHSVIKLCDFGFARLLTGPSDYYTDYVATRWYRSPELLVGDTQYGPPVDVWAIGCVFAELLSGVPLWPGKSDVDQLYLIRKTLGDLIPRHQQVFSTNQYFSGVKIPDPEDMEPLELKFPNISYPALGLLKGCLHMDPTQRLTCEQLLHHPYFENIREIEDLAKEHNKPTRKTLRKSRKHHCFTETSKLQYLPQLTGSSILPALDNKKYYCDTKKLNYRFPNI
Chain of JAK3 JH1 catalytic (human) (P52333 whole entry, looked up): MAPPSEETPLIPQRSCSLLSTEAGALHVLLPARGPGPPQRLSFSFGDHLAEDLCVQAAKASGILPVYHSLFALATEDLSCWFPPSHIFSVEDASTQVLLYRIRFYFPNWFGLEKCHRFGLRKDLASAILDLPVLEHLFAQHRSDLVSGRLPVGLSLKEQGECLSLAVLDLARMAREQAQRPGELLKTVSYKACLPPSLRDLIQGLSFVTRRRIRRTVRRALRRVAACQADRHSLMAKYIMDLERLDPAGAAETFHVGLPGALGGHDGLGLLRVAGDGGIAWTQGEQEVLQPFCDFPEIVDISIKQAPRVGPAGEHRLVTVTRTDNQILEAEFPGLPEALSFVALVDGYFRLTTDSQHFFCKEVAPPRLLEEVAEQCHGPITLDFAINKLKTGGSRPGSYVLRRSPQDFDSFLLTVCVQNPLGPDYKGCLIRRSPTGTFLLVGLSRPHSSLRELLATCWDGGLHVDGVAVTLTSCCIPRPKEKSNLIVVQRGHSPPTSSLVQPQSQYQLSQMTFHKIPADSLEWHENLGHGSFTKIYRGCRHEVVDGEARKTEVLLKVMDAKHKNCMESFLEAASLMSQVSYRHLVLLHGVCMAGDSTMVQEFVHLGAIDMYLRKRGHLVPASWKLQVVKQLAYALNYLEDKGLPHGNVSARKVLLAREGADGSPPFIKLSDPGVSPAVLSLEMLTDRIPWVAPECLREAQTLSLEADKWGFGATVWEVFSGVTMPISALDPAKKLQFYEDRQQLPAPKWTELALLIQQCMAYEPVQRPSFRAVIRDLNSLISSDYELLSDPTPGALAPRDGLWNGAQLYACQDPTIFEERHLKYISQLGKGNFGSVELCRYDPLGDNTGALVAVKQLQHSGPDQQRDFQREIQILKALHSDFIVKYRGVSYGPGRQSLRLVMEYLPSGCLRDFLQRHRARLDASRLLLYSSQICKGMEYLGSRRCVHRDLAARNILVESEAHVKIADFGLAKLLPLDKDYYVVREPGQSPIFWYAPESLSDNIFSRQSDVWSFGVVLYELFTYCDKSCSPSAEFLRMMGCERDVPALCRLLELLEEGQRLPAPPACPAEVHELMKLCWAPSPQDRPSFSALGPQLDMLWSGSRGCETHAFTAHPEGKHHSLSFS

Cc1ccc(NC(=O)c2ccc(NC(=O)/C=C/CN(C)C)cc2)cc1Nc1nccc(-c2cccnc2)n1
kinase still bound, per cent of control (BMX (human); compound 10.0 µM): 100% | kinase still bound, per cent of control (CAMKK2 (human); compound 10.0 µM): 56% | kinase still bound, per cent of control (CDK17 (human); compound 10.0 µM): 100% | kinase still bound, per cent of control (CDK19 (human); compound 10.0 µM): 32% | kinase still bound, per cent of control (CDK3 (human); compound 10.0 µM): 100% | kinase still bound, per cent of control (CDK5 (human); compound 10.0 µM): 100% | kinase still bound, per cent of control (CDKL1 (human); compound 10.0 µM): 100% | kinase still bound, per cent of control (CLK3 (human); compound 10.0 µM): 93% | kinase still bound, per cent of control (CRK2 (P.falciparum); compound 10.0 µM): 100% | kinase still bound, per cent of control (DYRK2 (human); compound 10.0 µM): 36% | kinase still bound, per cent of control (EGFR (human); compound 10.0 µM): 62% | kinase still bound, per cent of control ([1]; compound 10.0 µM): 61% | kinase still bound, per cent of control ([2]; compound 10.0 µM): 57% | kinase still bound, per cent of control ([3]; compound 10.0 µM): 33% | kinase still bound, per cent of control (FYN (human); compound 10.0 µM): 95% | kinase still bound, per cent of control (GAK (human); compound 10.0 µM): 8.6% | kinase still bound, per cent of control (IGF1R (human); compound 10.0 µM): 100% | kinase still bound, per cent of control (INSR (human); compound 10.0 µM): 93% | kinase still bound, per cent of control ([4]; compound 10.0 µM): 100% | kinase still bound, per cent of control ([5]; compound 10.0 µM): 48% | kinase still bound, per cent of control (LYN (human); compound 10.0 µM): 54% | kinase still bound, per cent of control (MAP2K6 (human); compound 10.0 µM): 100% | kinase still bound, per cent of control (MAP3K4 (human); compound 10.0 µM): 100% | kinase still bound, per cent of control (MAPK14 (human); compound 10.0 µM): 66% | kinase still bound, per cent of control (MATK (human); compound 10.0 µM): 45% | kinase still bound, per cent of control (MKNK2 (human); compound 10.0 µM): 4.2% | kinase still bound, per cent of control (MYLK3 (human); compound 10.0 µM): 97% | kinase still bound, per cent of control (MYO3B (human); compound 10.0 µM): 100% | kinase still bound, per cent of control (NEK11 (human); compound 10.0 µM): 78% | kinase still bound, per cent of control (NEK5 (human); compound 10.0 µM): 51% | kinase still bound, per cent of control (NUAK2 (human); compound 10.0 µM): 69% | kinase still bound, per cent of control ([6]; compound 10.0 µM): 100% | kinase still bound, per cent of control (PKN1 (human); compound 10.0 µM): 100% | kinase still bound, per cent of control (PRKCH (human); compound 10.0 µM): 87% | kinase still bound, per cent of control (RPS6KA1 KD2 (human); compound 10.0 µM): 77% | kinase still bound, per cent of control (SRPK1 (human); compound 10.0 µM): 74% | kinase still bound, per cent of control (STK16 (human); compound 10.0 µM): 34% | kinase still bound, per cent of control (STK3 (human); compound 10.0 µM): 100% | kinase still bound, per cent of control (TAOK2 (human); compound 10.0 µM): 61% | kinase still bound, per cent of control (TAOK3 (human); compound 10.0 µM): 19% | kinase still bound, per cent of control (TBK1 (human); compound 10.0 µM): 64% | kinase still bound, per cent of control (TLK1 (human); compound 10.0 µM): 74% | kinase still bound, per cent of control (WEE1 (human); compound 10.0 µM): 100%

Cc1cc(NC(=O)c2cccc(NC(=O)/C=C/CN(C)C)c2)ccc1Nc1nccc(-c2cccnc2)n1
kinase still bound, per cent of control (BMX (human); compound 1.0 µM): 100% | kinase still bound, per cent of control (CAMKK2 (human); compound 1.0 µM): 93% | kinase still bound, per cent of control (CDK17 (human); compound 1.0 µM): 100% | kinase still bound, per cent of control (CDK19 (human); compound 1.0 µM): 62% | kinase still bound, per cent of control (CDK3 (human); compound 1.0 µM): 100% | kinase still bound, per cent of control (CDK5 (human); compound 1.0 µM): 100% | kinase still bound, per cent of control (CDKL1 (human); compound 1.0 µM): 88% | kinase still bound, per cent of control (CLK3 (human); compound 1.0 µM): 100% | kinase still bound, per cent of control (CRK2 (P.falciparum); compound 1.0 µM): 90% | kinase still bound, per cent of control (DYRK2 (human); compound 1.0 µM): 20% | kinase still bound, per cent of control (EGFR (human); compound 1.0 µM): 100% | kinase still bound, per cent of control ([1]; compound 1.0 µM): 90% | kinase still bound, per cent of control ([2]; compound 1.0 µM): 100% | kinase still bound, per cent of control ([3]; compound 1.0 µM): 58% | kinase still bound, per cent of control (FYN (human); compound 1.0 µM): 78% | kinase still bound, per cent of control (GAK (human); compound 1.0 µM): 92% | kinase still bound, per cent of control (IGF1R (human); compound 1.0 µM): 93% | kinase still bound, per cent of control (INSR (human); compound 1.0 µM): 14% | kinase still bound, per cent of control ([4]; compound 1.0 µM): 87% | kinase still bound, per cent of control ([5]; compound 1.0 µM): 67% | kinase still bound, per cent of control (LYN (human); compound 1.0 µM): 87% | kinase still bound, per cent of control (MAP2K6 (human); compound 1.0 µM): 95% | kinase still bound, per cent of control (MAP3K4 (human); compound 1.0 µM): 100% | kinase still bound, per cent of control (MAPK14 (human); compound 1.0 µM): 100% | kinase still bound, per cent of control (MATK (human); compound 1.0 µM): 81% | kinase still bound, per cent of control (MKNK2 (human); compound 1.0 µM): 6.8% | kinase still bound, per cent of control (MYLK3 (human); compound 1.0 µM): 100% | kinase still bound, per cent of control (MYO3B (human); compound 1.0 µM): 89% | kinase still bound, per cent of control (NEK11 (human); compound 1.0 µM): 99% | kinase still bound, per cent of control (NEK5 (human); compound 1.0 µM): 92% | kinase still bound, per cent of control (NUAK2 (human); compound 1.0 µM): 70% | kinase still bound, per cent of control ([6]; compound 1.0 µM): 95% | kinase still bound, per cent of control (PKN1 (human); compound 1.0 µM): 94% | kinase still bound, per cent of control (PRKCH (human); compound 1.0 µM): 94% | kinase still bound, per cent of control (RPS6KA1 KD2 (human); compound 1.0 µM): 88% | kinase still bound, per cent of control (SRPK1 (human); compound 1.0 µM): 99% | kinase still bound, per cent of control (STK16 (human); compound 1.0 µM): 61% | kinase still bound, per cent of control (STK3 (human); compound 1.0 µM): 48% | kinase still bound, per cent of control (TAOK2 (human); compound 1.0 µM): 73% | kinase still bound, per cent of control (TAOK3 (human); compound 1.0 µM): 66% | kinase still bound, per cent of control (TBK1 (human); compound 1.0 µM): 100% | kinase still bound, per cent of control (TLK1 (human); compound 1.0 µM): 98% | kinase still bound, per cent of control (WEE1 (human); compound 1.0 µM): 100%

CN(C)C/C=C/C(=O)Nc1cccc(C(=O)Nc2ccc(Nc3nccc(-c4c(-c5ccccc5)nn5ccccc45)n3)cc2)c1
kinase still bound, per cent of control (BMX (human); compound 1.0 µM): 76% | kinase still bound, per cent of control (CAMKK2 (human); compound 1.0 µM): 100% | kinase still bound, per cent of control (CDK17 (human); compound 1.0 µM): 100% | kinase still bound, per cent of control (CDK19 (human); compound 1.0 µM): 100% | kinase still bound, per cent of control (CDK3 (human); compound 1.0 µM): 100% | kinase still bound, per cent of control (CDK5 (human); compound 1.0 µM): 100% | kinase still bound, per cent of control (CDKL1 (human); compound 1.0 µM): 100% | kinase still bound, per cent of control (CLK3 (human); compound 1.0 µM): 100% | kinase still bound, per cent of control (CRK2 (P.falciparum); compound 1.0 µM): 100% | kinase still bound, per cent of control (DYRK2 (human); compound 1.0 µM): 100% | kinase still bound, per cent of control (EGFR (human); compound 1.0 µM): 1.8% | kinase still bound, per cent of control ([1]; compound 1.0 µM): 1.8% | kinase still bound, per cent of control ([2]; compound 1.0 µM): 0.8% | kinase still bound, per cent of control ([3]; compound 1.0 µM): 54% | kinase still bound, per cent of control (FYN (human); compound 1.0 µM): 49% | kinase still bound, per cent of control (GAK (human); compound 1.0 µM): 2.4% | kinase still bound, per cent of control (IGF1R (human); compound 1.0 µM): 100% | kinase still bound, per cent of control (INSR (human); compound 1.0 µM): 100% | kinase still bound, per cent of control ([4]; compound 1.0 µM): 49% | kinase still bound, per cent of control ([5]; compound 1.0 µM): 100% | kinase still bound, per cent of control (LYN (human); compound 1.0 µM): 58% | kinase still bound, per cent of control (MAP2K6 (human); compound 1.0 µM): 56% | kinase still bound, per cent of control (MAP3K4 (human); compound 1.0 µM): 80% | kinase still bound, per cent of control (MAPK14 (human); compound 1.0 µM): 2.1% | kinase still bound, per cent of control (MATK (human); compound 1.0 µM): 100% | kinase still bound, per cent of control (MKNK2 (human); compound 1.0 µM): 100% | kinase still bound, per cent of control (MYLK3 (human); compound 1.0 µM): 91% | kinase still bound, per cent of control (MYO3B (human); compound 1.0 µM): 97% | kinase still bound, per cent of control (NEK11 (human); compound 1.0 µM): 100% | kinase still bound, per cent of control (NEK5 (human); compound 1.0 µM): 98% | kinase still bound, per cent of control (NUAK2 (human); compound 1.0 µM): 89% | kinase still bound, per cent of control ([6]; compound 1.0 µM): 100% | kinase still bound, per cent of control (PKN1 (human); compound 1.0 µM): 100% | kinase still bound, per cent of control (PRKCH (human); compound 1.0 µM): 100% | kinase still bound, per cent of control (RPS6KA1 KD2 (human); compound 1.0 µM): 36% | kinase still bound, per cent of control (SRPK1 (human); compound 1.0 µM): 90% | kinase still bound, per cent of control (STK16 (human); compound 1.0 µM): 37% | kinase still bound, per cent of control (STK3 (human); compound 1.0 µM): 99% | kinase still bound, per cent of control (TAOK2 (human); compound 1.0 µM): 31% | kinase still bound, per cent of control (TAOK3 (human); compound 1.0 µM): 42% | kinase still bound, per cent of control (TBK1 (human); compound 1.0 µM): 100% | kinase still bound, per cent of control (TLK1 (human); compound 1.0 µM): 67% | kinase still bound, per cent of control (WEE1 (human); compound 1.0 µM): 100%
